Active and inactive are the calls of the source.
Assays:
Escherichia coli [1] = test: microbe, parasite or virus in culture
Escherichia coli [2] = test: microbe, parasite or virus in culture; remark: listed apart in the source
[3] = target: Beta-2 adrenergic receptor (Homo sapiens, UniProt P07550); test: ADRB2 activation measured by internalization – cell-based, FAP fluorogen, flow cytometry, cherry pick 1, dose response (AID 588763); assay type: functional
Cytochrome P450 2C9 = Cytochrome P450 2C9 (Homo sapiens, UniProt P11712)
Cytochrome P450 3A4 = Cytochrome P450 3A4 (Homo sapiens, UniProt P08684);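 further: CYP3A4 tested as one member of a cytochrome P450 panel screen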
Cytochrome P450 2C19 = Cytochrome P450 2C19 (Homo sapiens, UniProt P33261); test: Cytochrome panel assay with activity outcomes. Panel member name: p450-cyp2c19 Compounds with AC50 equal or less than 10 uM are considered active; assay type: functional; conditions: read-out: AC50
Cytochrome P450 2D6 = Cytochrome P450 2D6 (Homo sapiens, UniProt P10635);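 further: CYP2D6 member of a cytochrome P450 panel assay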
HEK293 [4] = test: inhibition of NOD1-driven NF-kB reporter – cell-based, luminescence, uHTS, primary screen (AID 1578); assay type: functional; conditions: Homo sapiens
HEK293 [5] = test: cells; assay type: functional, cell-based; conditions: Homo sapiens
HEK293 [6] = test: NOD2 signaling inhibitors in MDP-stimulated cells, cell-based, uHTS, luminescence (AID 2001); assay type: functional; conditions: Homo sapiens
HEK293 [7] = test: cells; assay type: functional, cell-based; conditions: Homo sapiens; remark: listed apart in the source
Streptococcus = test: GAS UMAA2166 growth inhibition – luminescence, BacTiterGlo, counter-screen for streptokinase expression inhibitor project, dose response (AID 1915); assay type: functional, organism-based;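 further: potency for reduction of bacterial viability or growth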
INS1 = test: INS-1E survival protection against cytokine death – cell-based, luminescence, retest, dose response (AID 449756); assay type: functional; conditions: Rattus norvegicus;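 further: cell death triggered by IL-1 beta plus TNF-alpha plus IFN-gamma mixture; protective hits raise ATP signal compared with cytokine alone wells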
[8] = system: Streptococcus sp. 'group A'; test: Streptococcus pyogenes SK(-)GAS viability under kanamycin – luminescence, BacTiterGlo, confirmation, counter-screen for streptokinase expression inhibitor project, dose response (AID 1900); assay type: functional, organism-based
[9] = target: T1, Ubiquitin-conjugating enzyme E2 N (Homo sapiens, UniProt P61088); assay type: functional;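 further: Dose-response confirmation in a TR-FRET assay detecting UBC13-driven polyubiquitin chain formation, inhibition measured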
T1 sequence (P61088 whole entry): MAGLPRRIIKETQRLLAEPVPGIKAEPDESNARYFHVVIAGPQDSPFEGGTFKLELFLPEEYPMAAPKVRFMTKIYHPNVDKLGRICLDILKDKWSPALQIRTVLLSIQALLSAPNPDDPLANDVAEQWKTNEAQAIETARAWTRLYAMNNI

Streptokinase A = target: T2, Streptokinase A (Streptococcus pyogenes serotype M1, UniProt P10520); test: viability-normalized secreted streptokinase activity reduction – plasminogen activation absorbance, OD405, dose response (AID 1914); assay type: functional, Streptococcus pyogenes M1 GAS;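 further: secreted streptokinase activity via plasminogen activation per viability signal from cell pellet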
T2 sequence (P10520 whole entry): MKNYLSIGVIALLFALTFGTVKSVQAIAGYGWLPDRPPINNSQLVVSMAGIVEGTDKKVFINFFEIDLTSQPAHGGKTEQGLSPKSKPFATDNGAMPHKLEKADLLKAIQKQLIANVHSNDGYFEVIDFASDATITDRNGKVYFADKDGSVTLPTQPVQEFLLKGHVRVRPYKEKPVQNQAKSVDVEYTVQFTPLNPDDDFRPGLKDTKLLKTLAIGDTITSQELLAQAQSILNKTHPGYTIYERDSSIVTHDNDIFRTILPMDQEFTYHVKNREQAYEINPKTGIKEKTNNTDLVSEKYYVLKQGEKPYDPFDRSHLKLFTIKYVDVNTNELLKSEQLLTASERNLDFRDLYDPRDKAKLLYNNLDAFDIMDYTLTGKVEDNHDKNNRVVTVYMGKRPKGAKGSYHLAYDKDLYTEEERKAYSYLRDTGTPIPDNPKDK

HEK293 [10] = test: cells; assay type: functional, cell-based; conditions: Homo sapiens; remark: listed apart in the source
[11] = target: Nucleotide-binding oligomerization domain-containing protein 2 (Homo sapiens, UniProt Q9HC29); test: inhibition of NOD2-driven NF-kB reporter – cell-based, luminescence, uHTS, HEK293 (AID 1566); assay type: functional
Chain of Nucleotide-binding oligomerization domain-containing protein 2 (Q9HC29 whole entry, the tested form may be a part): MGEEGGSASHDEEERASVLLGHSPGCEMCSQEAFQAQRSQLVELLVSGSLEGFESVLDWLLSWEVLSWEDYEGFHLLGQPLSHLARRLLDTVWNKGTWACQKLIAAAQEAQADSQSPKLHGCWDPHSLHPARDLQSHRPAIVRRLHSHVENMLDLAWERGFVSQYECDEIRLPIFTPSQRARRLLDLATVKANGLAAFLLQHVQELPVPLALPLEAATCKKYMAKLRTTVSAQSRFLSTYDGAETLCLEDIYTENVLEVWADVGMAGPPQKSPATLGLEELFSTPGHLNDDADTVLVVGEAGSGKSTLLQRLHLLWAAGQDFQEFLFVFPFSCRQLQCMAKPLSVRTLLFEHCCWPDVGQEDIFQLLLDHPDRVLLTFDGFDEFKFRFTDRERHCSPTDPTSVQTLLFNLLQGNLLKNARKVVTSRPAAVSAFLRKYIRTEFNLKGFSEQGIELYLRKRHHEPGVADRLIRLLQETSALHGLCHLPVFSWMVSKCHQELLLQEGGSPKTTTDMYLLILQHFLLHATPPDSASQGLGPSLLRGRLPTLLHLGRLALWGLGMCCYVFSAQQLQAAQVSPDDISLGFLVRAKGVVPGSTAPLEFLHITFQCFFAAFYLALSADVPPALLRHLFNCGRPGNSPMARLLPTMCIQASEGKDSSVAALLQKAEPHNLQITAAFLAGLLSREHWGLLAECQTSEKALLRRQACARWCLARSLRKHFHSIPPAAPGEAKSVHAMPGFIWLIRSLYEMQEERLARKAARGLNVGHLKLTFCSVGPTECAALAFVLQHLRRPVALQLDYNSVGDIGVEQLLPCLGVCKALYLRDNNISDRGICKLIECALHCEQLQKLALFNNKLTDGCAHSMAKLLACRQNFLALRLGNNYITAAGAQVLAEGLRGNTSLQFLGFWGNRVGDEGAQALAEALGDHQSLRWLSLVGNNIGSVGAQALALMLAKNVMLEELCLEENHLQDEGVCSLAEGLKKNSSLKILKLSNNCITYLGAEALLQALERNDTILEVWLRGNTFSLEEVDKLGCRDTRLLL

Chain of Cytochrome P450 2D6 (P10635 whole entry): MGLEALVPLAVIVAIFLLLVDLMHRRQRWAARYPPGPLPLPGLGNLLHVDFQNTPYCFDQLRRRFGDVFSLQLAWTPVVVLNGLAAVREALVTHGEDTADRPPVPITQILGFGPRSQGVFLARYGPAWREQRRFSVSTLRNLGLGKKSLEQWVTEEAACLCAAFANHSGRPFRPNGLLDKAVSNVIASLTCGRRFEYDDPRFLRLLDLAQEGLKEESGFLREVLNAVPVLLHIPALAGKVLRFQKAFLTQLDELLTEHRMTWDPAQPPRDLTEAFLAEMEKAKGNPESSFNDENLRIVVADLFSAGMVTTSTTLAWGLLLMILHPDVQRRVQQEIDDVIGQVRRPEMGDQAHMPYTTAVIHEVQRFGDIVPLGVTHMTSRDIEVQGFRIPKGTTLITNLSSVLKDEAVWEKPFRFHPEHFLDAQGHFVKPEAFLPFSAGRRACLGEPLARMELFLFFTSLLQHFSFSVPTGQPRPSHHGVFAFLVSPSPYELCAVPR
Chain of Beta-2 adrenergic receptor (P07550 whole entry): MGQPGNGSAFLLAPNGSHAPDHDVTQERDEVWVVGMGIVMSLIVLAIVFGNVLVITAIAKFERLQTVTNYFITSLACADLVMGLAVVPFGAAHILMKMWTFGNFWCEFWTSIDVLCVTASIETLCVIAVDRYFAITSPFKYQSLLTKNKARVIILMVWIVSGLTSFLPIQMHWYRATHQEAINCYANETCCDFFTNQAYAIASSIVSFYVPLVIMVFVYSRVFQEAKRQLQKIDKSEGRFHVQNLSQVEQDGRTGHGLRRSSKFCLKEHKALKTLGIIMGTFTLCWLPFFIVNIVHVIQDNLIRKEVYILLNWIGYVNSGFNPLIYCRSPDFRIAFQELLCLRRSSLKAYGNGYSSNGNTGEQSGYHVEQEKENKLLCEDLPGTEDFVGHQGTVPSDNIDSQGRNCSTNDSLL
Chain of Cytochrome P450 2C9 (P11712 whole entry): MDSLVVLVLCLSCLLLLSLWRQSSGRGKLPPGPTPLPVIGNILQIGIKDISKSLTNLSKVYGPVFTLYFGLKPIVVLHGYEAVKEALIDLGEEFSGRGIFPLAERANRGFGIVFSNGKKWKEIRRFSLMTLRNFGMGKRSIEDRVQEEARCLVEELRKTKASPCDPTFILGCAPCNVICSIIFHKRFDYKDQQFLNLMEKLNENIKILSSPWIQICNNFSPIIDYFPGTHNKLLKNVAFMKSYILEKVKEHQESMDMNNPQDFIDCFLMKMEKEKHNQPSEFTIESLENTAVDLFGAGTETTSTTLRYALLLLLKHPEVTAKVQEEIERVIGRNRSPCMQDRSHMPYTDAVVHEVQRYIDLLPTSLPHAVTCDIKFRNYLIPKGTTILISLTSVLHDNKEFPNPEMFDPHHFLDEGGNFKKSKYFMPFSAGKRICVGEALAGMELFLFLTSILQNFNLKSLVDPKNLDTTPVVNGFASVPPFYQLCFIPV
Chain of Cytochrome P450 3A4 (P08684 whole entry): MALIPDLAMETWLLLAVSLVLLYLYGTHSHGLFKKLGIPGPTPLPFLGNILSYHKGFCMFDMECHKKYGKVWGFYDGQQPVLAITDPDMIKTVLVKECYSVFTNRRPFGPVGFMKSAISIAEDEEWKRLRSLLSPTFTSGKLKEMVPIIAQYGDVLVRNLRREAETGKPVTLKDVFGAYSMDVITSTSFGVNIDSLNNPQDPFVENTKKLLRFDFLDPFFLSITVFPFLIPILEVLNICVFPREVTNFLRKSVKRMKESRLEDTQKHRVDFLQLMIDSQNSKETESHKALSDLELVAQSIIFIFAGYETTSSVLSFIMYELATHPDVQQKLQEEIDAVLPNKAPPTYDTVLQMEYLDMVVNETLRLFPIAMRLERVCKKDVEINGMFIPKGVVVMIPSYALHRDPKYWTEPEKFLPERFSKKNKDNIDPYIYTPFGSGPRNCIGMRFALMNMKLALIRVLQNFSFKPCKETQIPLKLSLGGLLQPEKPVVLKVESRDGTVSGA
Chain of Cytochrome P450 2C19 (P33261 whole entry): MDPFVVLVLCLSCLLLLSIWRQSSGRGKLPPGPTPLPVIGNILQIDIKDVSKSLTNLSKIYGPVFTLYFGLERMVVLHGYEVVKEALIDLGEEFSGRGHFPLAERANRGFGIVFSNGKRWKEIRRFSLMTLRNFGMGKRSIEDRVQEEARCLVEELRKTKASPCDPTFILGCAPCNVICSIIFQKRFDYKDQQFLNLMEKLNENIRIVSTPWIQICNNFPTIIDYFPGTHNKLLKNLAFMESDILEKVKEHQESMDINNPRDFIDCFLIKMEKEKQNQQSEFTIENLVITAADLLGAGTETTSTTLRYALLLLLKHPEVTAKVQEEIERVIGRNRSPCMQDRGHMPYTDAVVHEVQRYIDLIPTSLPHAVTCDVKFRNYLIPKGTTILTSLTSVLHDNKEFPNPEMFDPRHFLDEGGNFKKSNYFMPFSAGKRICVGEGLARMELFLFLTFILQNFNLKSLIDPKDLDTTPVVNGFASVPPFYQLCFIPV

COC(=O)c1cc(C(=O)Nc2cc(C)ccn2)cc([N+](=O)[O-])c1 was tested, and the AC50 (Escherichia coli [1]) was 63.9 µM (active) and the AC50 (Escherichia coli [2]) was 132 µM (active).
With COc1ccc(-c2cc(C(F)(F)F)nc(S(=O)(=O)CCC(=O)N3CCOCC3)n2)cc1 the EC50 [3] was 25.3 µM (inactive).
CCN(CC)S(=O)(=O)N1CCC(C(=O)NC2CCCC2)CC1 was tested, and the AC50 (Cytochrome P450 2C9) was 3.16 µM (inconclusive), the AC50 (Escherichia coli [2]) was 26.2 µM (active) and the AC50 (Cytochrome P450 3A4) was 15.8 µM (inconclusive). For the same compound, the AC50 (Cytochrome P450 2C19) was 39.8 µM (inconclusive).
In the case of CCOC(=O)c1c(NC(=O)/C=C/c2ccc3c(c2)OCO3)sc(C)c1C, the AC50 (Cytochrome P450 2D6) is reported as “inconclusive”.
In the case of Cc1nc(Nc2cnc(/C=C/c3cc(C(=O)Nc4cccc(C(F)(F)F)c4)ccc3C)cn2)cc(N2CCNCC2)n1, the EC50 (HEK293 [4]) is reported as 7.82 µM (active), the IC50 (HEK293 [5]) is reported as > 20 µM (inactive) and the IC50 (HEK293 [6]) is reported as > 20 µM (inactive). The IC50 (HEK293 [7]) was > 20 µM (inactive), the EC50 (Streptococcus) was > 150 µM (not active) and the AC50 (INS1) was 8.7 µM (active). The EC50 [8] was 6.39 µM (active), the IC50 [9] was > 20 µM (inactive) and the EC50 (Streptokinase A) was 11.4 µM (active). The IC50 (HEK293 [10]) was > 20 µM (inactive) and the EC50 [11] was 8.28 µM (active).
